Experimental findings from PubChem BioAssay (NCI) are described below.

Some test systems named below: OVCAR-5 ovarian; 786-0 renal; CAKI-1 renal; COLO 205 colon; HOP-92 NSCLC; A498 renal; SK-MEL-2 melanoma; HCT-15 colon; NCI/ADR-RES ovarian; MCF7 breast.
Holding throughout (assay): NCI anticancer screen, dose series, 48 h

Each structure is given as a SMILES string. Values joined by “and” are separate entries in the source; they are usually repeats but may differ in a detail not shown here. Identical values can stand only once.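 A five-concentration, 48-hour dose response in 96-well plates underlies each endpoint, interpolated linearly between surrounding concentrations. GI50 = concentration required for 50% inhibition of growth. At the TGI there is no net growth.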

Consider `COc1cc2c(c(OC)c1OC)-c1ccc(SC)c(=O)cc1[C@@H](NC(=O)c1ccc(OC(C)=O)cc1)CC2`, for which the TGI with OVCAR-5 ovarian was 65.5 µM; in the assay with 786-0 renal it was 12.9 µM; in the assay on CAKI-1 renal, greater than 100 µM; in the assay with COLO 205 colon it was 0.0405 µM; with HOP-92 NSCLC, 0.0311 µM; in the assay on A498 renal, 0.0779 µM and 0.0202 µM.

With `S=c1[nH]c(=S)c2sc(=S)n(-c3ccccc3)c2[nH]1`, the TGI with OVCAR-5 ovarian, with 786-0 renal, in the assay on CAKI-1 renal, in the assay on SK-MEL-2 melanoma, in the assay with HCT-15 colon and in the assay with COLO 205 colon was greater than 100 µM throughout. Also, the TGI in the assay with HOP-92 NSCLC and with A498 renal was greater than 100 µM each time.

On to `COc1ccc2c([nH]c3cc(O)c(C)cc32)c1C=O`, for which the TGI in the assay with OVCAR-5 ovarian, in the assay with 786-0 renal, in the assay with SK-MEL-2 melanoma, in the assay on HCT-15 colon, in the assay with COLO 205 colon and with HOP-92 NSCLC was greater than 25 µM each time.

As to `COC(=O)/C=C(C)/C=C/c1cc(C(C)=O)c(C)o1`, the TGI in the assay with OVCAR-5 ovarian, with 786-0 renal, in the assay with CAKI-1 renal, with SK-MEL-2 melanoma, with HCT-15 colon and with HOP-92 NSCLC was greater than 100 µM each time.

In the case of `COC1/C=C\C=C(/C)C(=O)Nc2cc3nc4ccc(Br)cc4oc-3c(c2=O)CC(C)CC(OC)C(O)C(C)/C=C(\C)C1OC(N)=O` (centres undefined), the GI50 is 0.00434 µM in the assay with OVCAR-5 ovarian; 0.00576 µM in the assay on 786-0 renal; 0.00583 µM in the assay with HCT-15 colon; 0.000903 µM in the assay on COLO 205 colon; 0.00757 µM in the assay with HOP-92 NSCLC. Also, the TGI with OVCAR-5 ovarian amounted to 5.88 µM; in the assay with 786-0 renal it was 12 µM; in the assay on CAKI-1 renal, 16.3 µM; in the assay with SK-MEL-2 melanoma, 24.5 µM; in the assay on HCT-15 colon it was 6.99 µM; in the assay with COLO 205 colon it was 0.169 µM. Besides, the TGI was found to be 4.81 µM with HOP-92 NSCLC and 30.9 µM in the assay on A498 renal.

On to `CC(=O)C1CC2(c3ccc(C)cc3)C(c3ccc(C)cc3)=C(c3ccc(C)cc3)C1(c1ccc(C)cc1)S2=O` (centres undefined), for which the GI50 in the assay on OVCAR-5 ovarian, with 786-0 renal, with NCI/ADR-RES ovarian, in the assay with CAKI-1 renal, in the assay with SK-MEL-2 melanoma and in the assay with HCT-15 colon was greater than 100 µM in each case. The GI50 in the assay with MCF7 breast and in the assay on COLO 205 colon was greater than 100 µM each time. The TGI with OVCAR-5 ovarian, in the assay with 786-0 renal, in the assay on NCI/ADR-RES ovarian, in the assay on CAKI-1 renal, in the assay on SK-MEL-2 melanoma and in the assay with HCT-15 colon was greater than 100 µM throughout. Also, the TGI with MCF7 breast and in the assay with COLO 205 colon was greater than 100 µM throughout.

`CCCCCCCCCCC(C)CCCCCCC(=O)OCC(COP(=O)([O-])OCC[N+](C)(C)C)OC(=O)CCCCCCC(C)CCCCCCCCCC` (centres undefined): the TGI with OVCAR-5 ovarian, in the assay on 786-0 renal, in the assay on CAKI-1 renal, in the assay on SK-MEL-2 melanoma, with HCT-15 colon and with COLO 205 colon was greater than 100 µM each time. For the same compound, the TGI in the assay with HOP-92 NSCLC and with A498 renal was greater than 100 µM throughout.

Turning to `CCOC(=O)/C(=C\c1ccc(OCc2ccccc2)c(OC)c1)C(=O)c1ccccc1`, the TGI is 48.6 µM in the assay on OVCAR-5 ovarian; 37.7 µM in the assay on 786-0 renal; 64.7 µM with CAKI-1 renal; 40.7 µM in the assay on SK-MEL-2 melanoma; 42.3 µM in the assay on HCT-15 colon; 99.2 µM with COLO 205 colon.

As for `C[C@@H]1O[C@@H](O[C@@H]2[C@@H](O)[C@H](OCCc3ccc(O)c(O)c3)O[C@H](COC(=O)/C=C/c3ccc(O)c(O)c3)[C@H]2O)[C@H](O)[C@H](O)[C@H]1O`, the GI50 was greater than 100 µM with OVCAR-5 ovarian; 58.4 µM in the assay with 786-0 renal; 98.3 µM with CAKI-1 renal; greater than 100 µM with SK-MEL-2 melanoma; greater than 100 µM with HCT-15 colon; greater than 100 µM in the assay with COLO 205 colon. For the same compound, the TGI with OVCAR-5 ovarian, with 786-0 renal, in the assay with CAKI-1 renal, with SK-MEL-2 melanoma, in the assay on HCT-15 colon and with COLO 205 colon was greater than 100 µM in each case.

For the compound `Cc1nc2c(=O)[nH]c(=O)n(C)c2[nH]c1=O`, the TGI with OVCAR-5 ovarian, with 786-0 renal, in the assay with CAKI-1 renal, in the assay on SK-MEL-2 melanoma, with HCT-15 colon and in the assay on COLO 205 colon was greater than 100 µM in each case. Moreover, the TGI in the assay with HOP-92 NSCLC and in the assay on A498 renal was greater than 100 µM in each case.

On to `C[C@]12CC[C@H](O)CC1=CC[C@@H]1C2CC[C@]2(C)c3nn(-c4ccc(F)cc4)nc3CC12` (some centres undefined), for which the TGI with OVCAR-5 ovarian, with 786-0 renal, in the assay with CAKI-1 renal, in the assay with MCF7 breast, with COLO 205 colon and in the assay with HOP-92 NSCLC was greater than 100 µM in each case. Further, in the assay with A498 renal, the TGI was greater than 100 µM.

On to `CC(=O)NC1=C(Nc2ccc(C)cc2)C(=O)c2ccccc2C1=O`, for which the TGI with OVCAR-5 ovarian was 27.4 µM; in the assay on 786-0 renal it was 39.3 µM; with CAKI-1 renal it was greater than 75 µM; in the assay with SK-MEL-2 melanoma, 56.7 µM; in the assay with HCT-15 colon, 39.3 µM; in the assay on COLO 205 colon it was 45.3 µM. Also, in the assay on A498 renal, the TGI was greater than 75 µM.

Consider `c1nc2cscc2c2cscc12`, for which the TGI with OVCAR-5 ovarian, with 786-0 renal, with CAKI-1 renal, in the assay on SK-MEL-2 melanoma, in the assay on HCT-15 colon and in the assay with HOP-92 NSCLC was greater than 100 µM throughout. In the assay on A498 renal, this compound showed a TGI greater than 100 µM.

Regarding `CC1Cc2c(N)nc(NN)nc2NC1=O` (centres undefined), the TGI with 786-0 renal, in the assay with HCT-15 colon and in the assay on COLO 205 colon was greater than 100 µM each time.

`C=CC[C@H]1C[C@@]2(C)OC[C@H](C(C)C)N2C1=O`: the TGI in the assay on OVCAR-5 ovarian, in the assay with 786-0 renal, with CAKI-1 renal, in the assay on SK-MEL-2 melanoma, in the assay with HCT-15 colon and with COLO 205 colon was greater than 100 µM in each case. In addition, the TGI in the assay with HOP-92 NSCLC and in the assay on A498 renal was greater than 100 µM throughout.

Take `Cc1cccc(C)c1NC(=O)CCCC(=O)CC(=O)/C=C/c1ccccc1`: the TGI in the assay with OVCAR-5 ovarian, with 786-0 renal, in the assay with CAKI-1 renal, in the assay with SK-MEL-2 melanoma, in the assay on HCT-15 colon and in the assay on COLO 205 colon was greater than 100 µM throughout. The TGI in the assay with HOP-92 NSCLC and with A498 renal was greater than 100 µM each time.
